Measured values from PMC11219871, “Epigenetic-based differentiation therapy for Acute Myeloid Leukemia” (Nature Communications, 2024).
Read-outs that look alike come from different tables or passages of the source.

Tests used:
HDAC1 = HDAC1 (Homo sapiens, UniProt Q13547); assay: HDAC enzymatic assay, fluorescence-labeled substrate; type: biochemical
HL-60 = assay: RNA-seq; type: cell-based, human
Method: (§1) Transcriptomic analyses were performed following low-input 3′ end RNA sequencing approximation for characterization of transcriptional changes in ML-2 and HL-60 samples treated with CM-444 and CM-1758.
(§2) Low-input 3′ end RNA-seq was performed as previously described[53],[54] with minor modifications. Briefly, RNA from 0.1 ×10^6 cells from each experimental condition was purified using a Dynabeads mRNA DIRECT Purification Kit (Thermo Fisher Scientific). For barcoded cDNA generation, polyadenylated RNA was retrotranscribed using an Affinity Script cDNA Synthesis Kit (Agilent Technologies), and barcoded primers also harboring T7 promoter and a partial Read2 sequence for illumine sequencing (CGATTGAGGCCGGTAATACGACTCACTATAGGGGGCGACGTGTGCTCTTCCGATCTXXXXXXNNNNTTTTTTTTTTTTTTTTTTTT, where XXXXXX is the cell barcode and NNN is a unique molecular identifier or UMI, which represents the same initial RNA molecule for future quantification). At this point, the samples were pooled (≤6 samples per pool) at equimolar ratios assessed by q-PCR.
(§3) The samples were then treated with Exonuclease I (Thermo Fisher Scientific following a 1.2x positive SPRI-selection. Second-strand cDNA synthesis was then performed using a NEBNext Ultra II Directional RNA Second-Strand Synthesis Module (New England Biolabs) for 2 h at 16 °C, followed by a 1.4x positive solid-phase reverse immobilization (SPRI) cleanup. The samples were linearly amplified by T7 in vitro transcription using a T7 RNA Polymerase (New England Biolabs) for 16 h at 37 °C. After DNAse treatment (TURBO DNAse I, Thermo Fisher Scientific) for 15 min at 37 °C to remove dsDNA, samples were cleaned with a positive 1.2x SPRI-selection. RNA size, quality, and concentration were determined by analysis with a Qubit Fluorometer (Termo Fisher Scientific) and TapeStation (Agilent 4200 TapeSation System, Agilent Technologies). If necessary, RNA was fragmented in 200- to 300-bp fragments using Zn2+divalent cations followed by a 2x positive SPRI cleanup. Fragmented RNA was dephosphorylated using FastAP Thermosensitive Alkaline Phosphatase (Thermo Fisher Scientific) for 10 min at 37 °C to enhance RNA ligation yield. In this step, a partial Read1 ([…]) sequence for illumine sequencing was ligated to the 3′ end of the fragmented RNA using T4 RNA Ligase I (New England Biolabs). After a 1.5x positive SPRI cleanup, the RNA product was retrotranscribed using an Affinity Script cDNA Synthesis Kit (Agilent Technologies) and a specific retrotranscription primer ([…]). The library was then purified by 1.5x positive SPRI cleanup, and the yield of the previous steps was determined by q-PCR. Finally, PCR using KAPA HiFi HotStar Ready Mix (Kapa Biosystems) was performed for second-strand cDNA synthesis, illumine primers addition (Read1-P5: […] and Read2-P7: […]) and library amplification using the recommended cycle numbers to minimize over-amplification. The product was purified by a 0.7x positive SPRI cleanup. The quality of the final library was determined by q-PCR (based on the threshold cycle, or Ct, obtained for GAPDH (Fw: […], Rv: […]) or GUSB (Fw: […], Rv: […]) housekeeping genes calibrated per individual set of samples, Qubit Fluorometer (Thermo Fisher Scientific) and TapeStation (Agilent 4200 TapeStation System, Agilent Technologies). All libraries were pooled at equimolar ratios and sequenced on a NextSeq500 (Illumina) using 60 bp single-end reads at a minimum sequence depth of 10 million reads per sample.
(§4) Raw reads were demultiplexed using bcl2fastq2 Conversion Software v2.19 (Illumina) to convert base call (BCL) files into FastQ files. The quality control of FastQ files was performed using FastQC (Bioinformatics Babraham Institute). Sequencing reads were aligned to hg19 human reference using Bowtie 2 (Johns Hopkins University) and quantified using quant3p script (github.com/ctlab/quant3p). […]

ML-2 = assay: RNA-seq; type: cell-based, human
Method: as §1, §2, §3, §4

[1] = HL-60, 25% GI50, 12 h, log2FC +/-1
[2] = ML-2, 25% GI50, 12 h, log2FC +/-1

Sequence of HDAC1 (Q13547 whole entry): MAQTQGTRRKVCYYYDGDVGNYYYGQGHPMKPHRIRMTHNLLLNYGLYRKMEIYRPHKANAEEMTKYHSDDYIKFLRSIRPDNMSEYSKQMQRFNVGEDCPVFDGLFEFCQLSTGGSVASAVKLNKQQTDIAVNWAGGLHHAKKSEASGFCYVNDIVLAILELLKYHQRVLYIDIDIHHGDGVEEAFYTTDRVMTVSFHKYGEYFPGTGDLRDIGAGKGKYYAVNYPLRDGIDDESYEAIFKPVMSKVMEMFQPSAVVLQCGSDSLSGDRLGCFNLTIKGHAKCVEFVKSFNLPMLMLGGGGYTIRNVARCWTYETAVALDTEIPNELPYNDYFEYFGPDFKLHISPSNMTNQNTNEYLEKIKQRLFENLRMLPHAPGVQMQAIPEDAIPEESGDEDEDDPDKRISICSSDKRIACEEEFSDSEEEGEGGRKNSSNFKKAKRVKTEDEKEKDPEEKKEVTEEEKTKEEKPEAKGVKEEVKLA

With `COc1cc2nc(-c3cc(C)oc3C)cc(NCC3CCN(c4ncc(C(=O)NO)cn4)CC3)c2cc1OC` [CM-1758, 2-[4-[[[2-(2,5-dimethyl-3-furyl)-6,7-dimethoxy-4-quinolyl]amino]methyl] -1-piperidyl]pyrimidine-5-carbohydroxamic acid] the inhibition at 10 µM (HDAC1; 10 µM, source data of Fig. 1B) was 90%, the IC50 (HDAC1; read-out: HDAC1 IC50) was 4.32 nM and the IC50 (HDAC1; read-out: IC50) was 4.3 nM. The “deregulated genes (RNA-seq)” value (HL-60) was 3299, the “down-regulated genes (RNA-seq)” value (HL-60) was 1610 and the “up-regulated genes (RNA-seq)” value (HL-60) was 1589. The “deregulated genes (RNA-seq)” value (HL-60; [1]) was 1278, the “down-regulated genes (RNA-seq)” value (HL-60; [1]) was 409 and the “up-regulated genes (RNA-seq)” value (HL-60; [1]) was 869. For the same molecule, the “ABI1 Log2FC” value (HL-60; HL-60, RNA-Seq) was 0.03309, the “CBFB Log2FC” value (HL-60; HL-60, RNA-Seq) was -0.1665 and the “CCR2 Log2FC” value (HL-60; HL-60, RNA-Seq) was 0.8564. For the same molecule, the “CD44 Log2FC” value (HL-60; HL-60, RNA-Seq) was -0.4326, the “CDK6 Log2FC” value (HL-60; HL-60, RNA-Seq) was 0.05972 and the “CEBPB Log2FC” value (HL-60; HL-60, RNA-Seq) was 0.4359. For the same molecule, the “CSF3R Log2FC” value (HL-60; HL-60, RNA-Seq) was 0.06074, the “CTNNBIP1 Log2FC” value (HL-60; HL-60, RNA-Seq) was 1.186 and the “ELANE Log2FC” value (HL-60; HL-60, RNA-Seq) was -1.7362. For the same molecule, the “EP300 Log2FC” value (HL-60; HL-60, RNA-Seq) was -0.1778, the “FLI1 Log2FC” value (HL-60; HL-60, RNA-Seq) was -0.2831 and the “FUT4 Log2FC” value (HL-60; HL-60, RNA-Seq) was -1.407. For the same molecule, the “GATA2 Log2FC” value (HL-60; HL-60, RNA-Seq) was 0.09944, the “HCLS1 Log2FC” value (HL-60; HL-60, RNA-Seq) was -0.1237 and the “ITGA4 Log2FC” value (HL-60; HL-60, RNA-Seq) was -1.197. For the same molecule, the “ITGAM Log2FC” value (HL-60; HL-60, RNA-Seq) was 2.404, the “ITGB1 Log2FC” value (HL-60; HL-60, RNA-Seq) was 0.9626 and the “ITGB2 Log2FC” value (HL-60; HL-60, RNA-Seq) was 0.07825. For the same molecule, the “JUN Log2FC” value (HL-60; HL-60, RNA-Seq) was 0.9774, the “MPO Log2FC” value (HL-60; HL-60, RNA-Seq) was -2.297 and the “MYC Log2FC” value (HL-60; HL-60, RNA-Seq) was -2.139. For the same molecule, the “NFE2 Log2FC” value (HL-60; HL-60, RNA-Seq) was -0.3801, the “PIR Log2FC” value (HL-60; HL-60, RNA-Seq) was 1.629 and the “RUNX1 Log2FC” value (HL-60; HL-60, RNA-Seq) was -0.01075. For the same molecule, the “SOX4 Log2FC” value (HL-60; HL-60, RNA-Seq) was 0.2112, the “SPI1 Log2FC” value (HL-60; HL-60, RNA-Seq) was -0.6241 and the “TESC Log2FC” value (HL-60; HL-60, RNA-Seq) was -0.09114. The “TRIB1 Log2FC” value (HL-60; HL-60, RNA-Seq) was -0.4986, the “ZBTB46 Log2FC” value (HL-60; HL-60, RNA-Seq) was 0.4368 and the “ZFP36L1 Log2FC” value (HL-60; HL-60, RNA-Seq) was 1.334. For the same molecule, the “deregulated genes (RNA-seq)” value (ML-2) was 3750, the “down-regulated genes (RNA-seq)” value (ML-2) was 2024 and the “up-regulated genes (RNA-seq)” value (ML-2) was 1726. The “deregulated genes (RNA-seq)” value (ML-2; [2]) was 2520, the “down-regulated genes (RNA-seq)” value (ML-2; [2]) was 1183 and the “up-regulated genes (RNA-seq)” value (ML-2; [2]) was 1337. The “ABI1 Log2FC” value (ML-2; ML-2, RNA-Seq) was 1.097, the “CBFB Log2FC” value (ML-2; ML-2, RNA-Seq) was 0.03944 and the “CCR2 Log2FC” value (ML-2; ML-2, RNA-Seq) was -0.7456. The “CD44 Log2FC” value (ML-2; ML-2, RNA-Seq) was 0.03189, the “CDK6 Log2FC” value (ML-2; ML-2, RNA-Seq) was -1.439 and the “CEBPB Log2FC” value (ML-2; ML-2, RNA-Seq) was 0.5234. For the same molecule, the “CSF3R Log2FC” value (ML-2; ML-2, RNA-Seq) was -1.197, the “CTNNBIP1 Log2FC” value (ML-2; ML-2, RNA-Seq) was 0.1531 and the “ELANE Log2FC” value (ML-2; ML-2, RNA-Seq) was -2.561. For the same molecule, the “EP300 Log2FC” value (ML-2; ML-2, RNA-Seq) was 0.4661, the “FLI1 Log2FC” value (ML-2; ML-2, RNA-Seq) was -0.175 and the “FUT4 Log2FC” value (ML-2; ML-2, RNA-Seq) was -1.092. For the same molecule, the “GATA2 Log2FC” value (ML-2; ML-2, RNA-Seq) was 2.602, the “HCLS1 Log2FC” value (ML-2; ML-2, RNA-Seq) was -0.435 and the “ITGA4 Log2FC” value (ML-2; ML-2, RNA-Seq) was -1.164. The “ITGAM Log2FC” value (ML-2; ML-2, RNA-Seq) was 1.457, the “ITGB1 Log2FC” value (ML-2; ML-2, RNA-Seq) was 0.9913 and the “ITGB2 Log2FC” value (ML-2; ML-2, RNA-Seq) was -0.1511. The “JUN Log2FC” value (ML-2; ML-2, RNA-Seq) was 1.4026, the “MPO Log2FC” value (ML-2; ML-2, RNA-Seq) was -2.925 and the “MYC Log2FC” value (ML-2; ML-2, RNA-Seq) was -2.637. For the same molecule, the “NFE2 Log2FC” value (ML-2; ML-2, RNA-Seq) was -0.1388, the “PIR Log2FC” value (ML-2; ML-2, RNA-Seq) was 0.9099 and the “RUNX1 Log2FC” value (ML-2; ML-2, RNA-Seq) was 0.04441. For the same molecule, the “SOX4 Log2FC” value (ML-2; ML-2, RNA-Seq) was 0.5561, the “SPI1 Log2FC” value (ML-2; ML-2, RNA-Seq) was -1.467 and the “TESC Log2FC” value (ML-2; ML-2, RNA-Seq) was -0.171. For the same molecule, the “TRIB1 Log2FC” value (ML-2; ML-2, RNA-Seq) was -0.1972, the “ZBTB46 Log2FC” value (ML-2; ML-2, RNA-Seq) was -0.02647 and the “ZFP36L1 Log2FC” value (ML-2; ML-2, RNA-Seq) was 4.387.
